Values after ≈ are worked out from the molar mass of the structure shown. Like-named read-outs stand apart in the source and are kept apart here. Marks after values point to notes of the source that are not given here.

For orientation: IC50 means the concentration needed to halve the response being measured.

The subject of experiment [1] is Salmonella typhimurium TA98 strain and TA100 strain. Put plainly: Growth inhibitory action and bactericidal action on salmonella (preincubation method, with and without S9 mix). The format is cell-based. As to conditions: for Bactericidal action: lowest concentration at which all bacterial cells were killed. Here is the method: Growth inhibitory action and bactericidal action on salmonella
1) Preparation of Test-Substance Solution
Test substances (compounds listed in Table 1) each were prepared by dissolving it in DMSO when used. Preparation was made in such a manner that the highest dose became 5000 μg/plate and the dose lower than this was prepared by a dilution method. In the table, reference numerals of individual compounds correspond to the numbers of the individual compounds synthesized in the above Examples (the same applies to the following Tables).
Salmonella typhimurium TA98 strain and TA100 strain were used.
These were supplied by Japan Bioassay Research Center, proliferated and examined for genetic properties and other properties in accordance with customary methods, in advance. After these strains were confirmed to have these properties, they are cryopreserved (−80° C.) with a DMSO-added medium; and thawed for use in each test.
3) A cryopreserved strain was thawed and inoculated in a 2.5% aqueous nutrient broth (OXOID No. 2) solution and cultured while shaking at 37° C. for 7 hours to obtain a cell suspension, which was subjected to tests.
A minimum glucose agar plate medium (Vital Media AMT-S, manufactured by Kyokuto Pharmaceutical Industrial Co., Ltd.) was used.
The top agar was prepared when used by blending an aqueous solution of 0.5 mM L-histidine and 0.5 mM D-(+)-biotin with an aqueous solution prepared by adding Bacto Agar (Difco) (0.6%) and sodium chloride (0.5%).
S9 was purchased from Kikkoman; whereas a cofactor was previously prepared in accordance with a method known in the art. They were mixed in a customary method to prepare S9 mix.
Using a test system containing S9 mix and a test system containing no S9 mix, a test was carried out in accordance with a preincubation method. As the dose selection, the highest dose was specified as […], which was then serially diluted in a common ratio of 2 to prepare a total of 15 doses to be used in the test.
To a sterile test tube, a test solution (0.1 mL) and 0.1 M Na-phosphate buffer or S9 mix (0.5 mL) and a cell suspension (0.1 mL) were sequentially dispensed. Pre-incubation was carried out at 37° C. for 20 minutes while shaking. After completion of the pre-incubation, top agar (2 mL) kept warm at 45° C. was added, mixed and placed on a minimum glucose agar plate medium. After solidification, the plate was turned upside down and cultured at 37° C. for 48 hours.
After completion of the culture, the state of microbial growth was observed by a stereomicroscope. After a precipitate on the plate was observed, revertant colonies were counted by the naked eye or a colony counter.
7) Criteria for Determination
Growth of both TA98 and TA100 strains was examined in the presence or absence of S9 mix. Among the resultant concentrations at which growth was inhibited, the lowest concentration was specified as the growth inhibitory concentration. Similarly, the bactericidal concentration was specified as the lowest concentration at which all bacterial cells were killed.

Experiment [2] deals with K562 human leukemia-derived cell lines. Put plainly: K562 human leukemia cell-proliferation inhibition test. As to conditions: K562 cells, 72 hours, viable cells counted with trypan blue. The format is cell-based. Here is the method:
K562 Human Leukemia Cell-Proliferation Inhibition Test
A cell proliferation inhibition test using K562 cells was performed. The activity in the presence of a test substance was compared to the activity in the presence of green tea polyphenol (GTP). The materials used in the test are as follows.
Cells: K562 human leukemia-derived cell lines (DS Pharma Biomedical Co., Ltd.)
Control Substance: Green Tea Polyphenols, abbreviation: GTP (LKT Laboratories, Inc.)
Culture solution: 10% equine serum-supplemented RPMI1640 medium
A test substance and a control substance were used by dissolving each of them in DMSO. To a solution (0.99 mL) containing K562 cells in a cell concentration of 20,000 cells/mL, a test substance solution or a control substance solution (0.01 mL) was added and the cells were cultured. Seventy two hours later, a part of the cells was stained with trypan blue and viable cells were counted by a counting chamber.
In Table 2, “IC50” denotes the sample concentration inhibiting 50% of cell proliferation

Experiment [3] deals with TNF-α mRNA expression in RBL-2H3 cells. Put plainly: Validation test in RBL-2H3 cell: TNF-α mRNA expression by antigen stimulation (Real-time PCR). The format is cell-based, Rat. The note with it: 10 μmol/L, untreated control as 100. Here is the method:
2. Validation Test in RBL-2H3 Cell
(Effect on Inflammation Mediator mRNA Expression by Antigen Stimulation)
After a cell model for an allergic reaction, RBL-2H3 cells, were stimulated by an antigen, mRNA expression level of a typical inflammation mediator, TNF-α, in the cell was measured by a Real-time PCR method. In this manner, a confirmation test for anti-inflammatory effect of Compound 3 was performed.
A test substance (Compound 3) (50 mg) was dissolved by adding 50 vol % ethanol (1 mL) to this to obtain an ethanol solution having a concentration of 50 mg/mL. The resultant solution was diluted with a medium. […] As a control (for comparison), Wortmannin (10 μM) was used. Herein, the concentrations were all indicated as the concentrations in cell supernatants.
RBL-2H3 cells were sensitized with anti-DNP-IgE antibody for 2 hours. A medium or a test solution was added and heat was applied at 37° C. for 10 minutes and then, a DNP-HSA solution was added. A reaction was carried out at 37° C. for 30 minutes. After completion of the reaction, total RNA was extracted from a cell fraction and cDNA was synthesized by use of Random Primer and Reverse Transcriptase. After a specific primer for a desired gene (ITNF-α,β-actin) was added, a Real-time PCR method was carried out in accordance with SYBR Green method using the resultant cDNA as a template to determine the expression level of mRNA. The expression ratio of the desired gene relative to a housekeeping gene, β-actin, was calculated. In this manner, a change in expression level relative to an untreated control was calculated.
Main test conditions and outline of the operation will be described below.
Cell: Rat basophil leukemic cell, RBL-2H3 [Human Sciences Foundation]
Antigen stimulation: Anti-DNP-IgE antibody, DNP labeled albumin
[Sigma-Aldrich Corporation]
Desired genes: IL-4, MCP-1, TNF-α, β-actin (housekeeping gene)
Measurement apparatus: StepOnePlus Real-Time PCR System [Life
Technologies Corporation] Measurement conditions: 95° C. (20 sec)→{95° C. (3 sec)→60° C. (30 sec)}×40 cycles
mRNA expression level (%) was obtained based on the expression level of the untreated control as 100.
In general terms: In qPCR the cycle at which signal appears reflects the starting amount.

[4] abbreviates: TA98 and TA100, presence or absence of S9 mix.
Where [5] appears, read: lowest concentration at which growth was inhibited, TA98 and TA100, presence or absence of S9 mix.
[6] abbreviates: Homo sapiens, K562, 72 h, read-out: IC50.

With `O=C(Nc1cc(S(F)(F)(F)(F)F)ccc1O)c1cc(O)c(O)c(O)c1` [Compound 12, 3-(3,4,5-trihydroxybenzoylamino)-4-hydroxypentafluorosulfanylbenzene], in experiment [1] (setting [4]), the Bactericidal action came to 1250 μg/plate. The same compound yielded a Growth inhibition in experiment [1] (setting [5]) of 313 μg/plate.

For the compound `CC(=O)Oc1cc(C(=O)Nc2ccc(S(F)(F)(F)(F)F)cc2)cc(OC(C)=O)c1OC(C)=O` [Compound 9, 4-(3,4,5-triacetoxybenzoylamino)pentafluorosulfanylbenzene], the Bactericidal action in experiment [1] (setting [4]) stood at 625 μg/plate. Besides, the Growth inhibition in experiment [1] (setting [5]) came out at 156 μg/plate. Further, the IC50 in experiment [2] (setting [6]) was determined as 1.2 µg/mL (≈ 2.41 µM).

As to `O=C(/C=C/c1ccc(O)c(O)c1)Nc1ccc(S(F)(F)(F)(F)F)cc1` [Compound 5, 4-(3,4-dihydroxycinnamoylamino)pentafluorosulfanylbenzene], the Bactericidal action in experiment [1] (setting [4]) was found to be 78.1 μg/plate. The Growth inhibition in experiment [1] (setting [5]) is given as 19.5 μg/plate. The same compound returned an IC50 in experiment [2] of 0.36 µg/mL (≈ 0.944 µM).

`O=C(/C=C/c1ccccc1)Nc1ccc(S(F)(F)(F)(F)F)cc1` [Compound 35, 4-(cinnamoylamino)pentafluorosulfanylbenzene] showed a Bactericidal action in experiment [1] (setting [4]) above 2500 μg/plate. Moreover, the Growth inhibition in experiment [1] (setting [5]) is recorded as 39.1 μg/plate. Further, the IC50 in experiment [2] (setting [6]) was determined as 0.2 µg/mL (≈ 0.573 µM).

The compound `O=C(Nc1cccc(S(F)(F)(F)(F)F)c1)c1cc(O)c(O)c(O)c1` [Compound 11, 3-(3,4,5-trihydroxybenzoylamino)pentafluorosulfanylbenzene] yielded a Bactericidal action in experiment [1] (setting [4]) of 625 μg/plate. Further, in experiment [1] (setting [5]), the Growth inhibition was found to be 78.1 μg/plate. Also, in experiment [2] (setting [6]), the IC50 stood at 1.5 µg/mL (≈ 4.04 µM).

The compound `O=C(Nc1ccc(S(F)(F)(F)(F)F)cc1NC(=O)c1cc(O)c(O)c(O)c1)c1cc(O)c(O)c(O)c1` [Compound 14, 3,4-bis(3,4,5-trihydroxybenzoylamino)pentafluorosulfanylbenzene] showed a Bactericidal action in experiment [1] (setting [4]) of 1250 μg/plate. The compound further showed a Growth inhibition in experiment [1] (setting [5]) of 625 μg/plate.

In the case of `COC[C@H]1OC(=O)c2coc3c2[C@@]1(C)C1=C(C3=O)[C@@H]2CCC(=O)[C@@]2(C)C[C@H]1OC(C)=O` [Wortmannin, reference compound], the “TNF-α mRNA expression level” value in experiment [3] is 45%.

Take `CC(=O)Oc1ccc(/C=C/C(=O)Nc2ccc(S(F)(F)(F)(F)F)cc2)cc1OC(C)=O` [Compound 4, 4-(3,4-diacetoxycinnamoylamino)pentafluorosulfanylbenzene]: the Growth inhibition in experiment [1] (TYPHIMURIUM) is on record as <39.1*^1 μg/plate. In experiment [1] (setting [4]), this compound showed a Bactericidal action of 156 μg/plate. Besides, the IC50 in experiment [2] (setting [6]) worked out at 2.2 µg/mL (≈ 4.73 µM).

For the compound `O=C(Oc1cccc(S(F)(F)(F)(F)F)c1)c1cc(O)c(O)c(O)c1` [Compound 8, 3-(3,4,5-trihydroxybenzoyloxy)pentafluorosulfanylbenzene], the IC50 in experiment [2] (setting [6]) came to 8.5 µg/mL (≈ 22.8 µM).

As to `COc1cc(/C=C/C(=O)Nc2ccc(S(F)(F)(F)(F)F)cc2)cc(OC)c1OCC=C(C)C` [Compound 43, 4-(4-(3-methyl-2-butenyloxy)-3,5-dimethoxycinnamoylamino)pentafluorosulfanylbenzene], in experiment [2] (setting [6]), the IC50 is 2.8 µg/mL (≈ 5.67 µM).

Regarding `COc1cc(/C=C/C(=O)Nc2ccc(S(F)(F)(F)(F)F)cc2)cc(OC)c1O` [Compound 53, 4-(4-hydroxy-3,5-dimethoxycinnamoylamino)pentafluorosulfanylbenzene], the IC50 in experiment [2] (setting [6]) turned out to be 0.9 µg/mL (≈ 2.12 µM).

The compound `CC(=O)Oc1ccc(/C=C/C(=O)Oc2ccc(S(F)(F)(F)(F)F)cc2)cc1OC(C)=O` [Compound 22, 4-(3,4-diacetoxycinnamoyloxy)pentafluorosulfanylbenzene] came in with a Bactericidal action in experiment [1] (setting [4]) of 156 μg/plate. The compound further yielded a Growth inhibition in experiment [1] (setting [5]) of 156 μg/plate.

As for `COc1cc(/C=C/C(=O)Nc2ccc(S(F)(F)(F)(F)F)cc2)ccc1OC(C)=O` [Compound 20, 4-(4-acetoxy-3-methoxycinnamoylamino)pentafluorosulfanylbenzene], the Growth inhibition in experiment [1] (setting [5]) worked out at 156 μg/plate. Besides, the IC50 in experiment [2] (setting [6]) was found to be 1.7 µg/mL (≈ 3.89 µM).

As for `COc1cc(C(=O)Nc2ccc(S(F)(F)(F)(F)F)cc2)ccc1N` [Compound 60, 4-(4-amino-3-methoxybenzoylamino)pentafluorosulfanylbenzene], the IC50 in experiment [2] (setting [6]) worked out at 0.1 µg/mL (≈ 0.271 µM).

For `COc1cc(/C=C/C(=O)Nc2ccc(S(F)(F)(F)(F)F)cc2)ccc1OCC=C(C)C` [Compound 37, 4-(4-(3-methyl-2-butenyloxy)-3-methoxycinnamoylamino)pentafluorosulfanylbenzene], the IC50 in experiment [2] (setting [6]) is 4.8 µg/mL (≈ 10.4 µM).

Consider `C=CCOc1ccc(/C=C/C(=O)Nc2ccc(S(F)(F)(F)(F)F)cc2)cc1OC` [Compound 38, 4-(4-(2-propenyloxy)-3-methoxycinnamoylamino)pentafluorosulfanylbenzene], for which the IC50 in experiment [2] (setting [6]) turned out to be 0.6 µg/mL (≈ 1.38 µM).

Turning to `COc1cc(C(=O)Nc2ccc(S(F)(F)(F)(F)F)cc2)ccc1O` [Compound 45, 4-(4-hydroxy-3-methoxybenzoylamino)pentafluorosulfanylbenzene], in experiment [2] (setting [6]), the IC50 came out at 0.51 µg/mL (≈ 1.38 µM).

With `O=C(Nc1ccc(S(F)(F)(F)(F)F)cc1)c1ccncc1F` [Compound 75, 4-(3-fluoropyridin-4-yl)carbonylaminopentafluorosulfanylbenzene], the IC50 in experiment [2] (setting [6]) came to 2 µg/mL (≈ 5.84 µM).

The values are drawn from patent US9682931B2, “Aryloyl(oxy or amino)pentafluorosulfanylbenzene compound, pharmaceutically acceptable salt thereof, and prodrugs thereof” (UBE INDUSTRIES, LTD., priority 2013, dated 2017).
